The values below come from patent publication US20020049151A1, “Therapeutic approaches to diseases by suppression of the NURR subfamily of nuclear transcription factors” (priority 2000, published 2002).

One test deals with NURR1 mRNA. As to the kind of experiment: Northern blot of NURR1 mRNA in synovium explants. Format: cell-based, human. The following applies: RA and PsA synovium explants; CRH 10^−8 M; IL-6 10 ng/ml. As to the method: To determine whether the NURR subfamily contribute to CRH signaling in a pathological context, freshly excised RA (FIG. 4A) and PsA synovium explants were incubated with CRH (10^−8 M) and examined for its ability to induce expression of NURR1 and NUR77 transcripts. […] Furthermore, analysis of synovium explants indicates higher endogenous and CRH-inducible NURR1 mRNA compared to NUR77 transcript levels.
In FIG. 4 total RNA was extracted and northern blot analysis was performed. Filters were hybridized with a cDNA for NURR1 or NUR77 and also with GAPDH to control for loading and transfer. Synovial explants were left untreated [C] or incubated with 10^−8M CRH for the indicated times. (FIG. 4A) Confluent monolayers of primary synoviocytes were left untreated [C] or pretreated with 10^−8M dexamethasone (DEX) for 2 h prior to the addition of 25μM forskolin (FOR) or 20 ng/ml of phorbal myristic acetate (PMA). (FIG. 4B)
For FIG. 6 each membrane was reprobed with a GAPDH cDNA to control for loading and transfer. NURR1 mRNA levels were measured by northern analysis using total RNA extracted from synoviocytes left untreated [C] or cultured for the time indicated with (A) TNFα (10 ng/ml) in the presence or absence of pre-treatment with 10^−8M dexamethasone (DEX). (B) IL-1β(10 ng/ml) in the presence or absence of pretreatment with 2 μM indomethacin (INDO) or 10^−8M DEX. (C) or synovial explants cultured with IL-6 (10 ng/ml). (D) 1 μM PGE2. (E) 25 μM forskolin (FOR) or […] for 1h in the absence or presence of 5 µg/ml cycloheximide (CHX).
Total RNA was isolated from cultured primary synoviocytes or synovial explants. RNA was quantitated by UV absorption and 10 μg of total RNA were electrophoresed on a standard northern gel and transferred to nylon membrane (BioRad, Richmond, Calif.). NURR1 and NUR77 cDNA probes (Murphy and Conneely, 1997), spanning the amino terminal region to avoid cross-hybridization, were radiolabeled to a high specific activity using [α-^32P] dCTP and a random primer labeling system (Promega, Madison, Wis.). Blots were exposed to film at −80° C. using intensifying screens and autoradiographic intensity was quantitated using an imaging densitometer.

The test system of the next test is synoviocytes. Description: Synoviocyte morphological transformation (fibroblast-like to stellate). Format: cell-based, human. The following applies: primary PsA synoviocytes, untreated vs TNFα.

As for IL-6: pro-inflammatory cytokine, the “NURR1 mRNA induction in synovium explants” value with NURR1 mRNA is “rapid and marked increase”.

With TNFα, the “synoviocyte morphology after stimulation” value in the test on synoviocytes is “stellate shape”.
